Measured values reported in US20060116390A1, “Hepatitis c virus inhibitors” (priority 2003, published 2006).
Structures can show the parent of a compound that is named as a salt. Where two headings read alike, the source gives them in different places.

System: HCV proteins in Rep5.1 cells (replicon cell line)
Test: Inhibitory activity of HCV: cell-based ELISA in replicon cell line Rep5.1 (decrease of HCV proteins)
Design: species or system hepatitis C virus
How it was run: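 Rep5.1 replicon cells (5000/well, DMEM-10 with 500 μg/ml G418) were given serially diluted drug 4 h after seeding. After 72 h, cells were fixed in methanol/acetone and HCV proteins detected by cell-based ELISA using replicon-specific patient plasma antibodies. IC50 is the concentration giving 50% protein decrease versus the no-drug control.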

[1] = Hepatitis C virus, 72 h, read-out: Level (IC50 values classified)
[2] = Hepatitis C virus, 72 h, Rep5.1 cells, 72 hours with drug, concentration at which 50% of HCV proteins was decreased, Table 2, read-out: IC50
[3] = Hepatitis C virus, 72 h, Rep5.1 cells, 72 hours with drug, decrease of HCV proteins measured by HCV antibody, Table 1, read-out: Level (IC50 values classified)

Structure (SMILES): CC1=C(C(=O)OCCc2cccc(Cl)c2)C(COC(=O)NCCN(C)C)NC(=S)N1 (stereo not drawn) [86″, 4-(2-dimethylamino-ethylcarbamoyloxymethyl)-6-methyl-2-thioxo-1,2,3,4-tetrahydro-pyrimidine-5-carboxylic acid 2-(3-chloro-phenyl)-ethyl ester trifluoroacetate]
- IC50 (Hepatitis C virus, 72 h): 700 nM
- IC50 [1]: < 1000 nM

Structure (SMILES): CC1=C(C(=O)OCc2ccccc2)CNC(=S)N1 [Compound 6, 6-methyl-2-thioxo-1,2,3,4-tetrahydro-pyrimidine-5-carboxylic acid benzyl ester]
- IC50 [2]: 1000 nM
- IC50 [3]: < 1000 nM

Structure (SMILES): CC1=C(C(=O)OCC=Cc2ccco2)CNC(=S)N1 [Compound 251, 6-methyl-2-thioxo-1,2,3,4-tetrahydro-pyrimidine-5-carboxylic acid 3-furan-2-allyl ester]
- IC50 (Rep5.1 cells, 72 hours with drug, concentration at which 50% of HCV proteins was decreased, Table 2, read-out: IC50): 1600 nM

Structure (SMILES): CC1=C(C(=O)OCc2ccc(F)cc2Cl)C(CO)NC(=S)N1 (stereo not drawn) [48″, 4-hydroxymethyl-6-methyl-2-thioxo-1,2,3,4-tetrahydro-pyrimidine-5-carboxylic acid 2-chloro-4-fluoro-benzyl ester]
- IC50 [2]: 43000 nM
- IC50 [3]: > 20000 nM

Structure (SMILES): COc1ccc(Cl)cc1CCOC(=O)C1=C(C)NC(=S)NC1CF (stereo not drawn) [84′, 4-fluoromethyl-6-methyl-2-thioxo-1,2,3,4-tetrahydro-pyrimidine-5-carboxylic acid 2-(5-chloro-2-methoxy-phenyl)-ethyl ester]
- IC50 [2]: 900 nM
- IC50 [3]: < 1000 nM

Structure (SMILES): CC1=C(C(=O)OCCCc2ccc(F)cc2)CNC(=S)N1 [Compound 103, 6-methyl-2-thioxo-1,2,3,4-tetrahydro-pyrimidine-5-carboxylic acid 3-(4-fluoro-phenyl)-propyl ester]
- IC50 [2]: < 400 nM
- IC50 [3]: < 1000 nM

Structure (SMILES): CCOc1ccccc1CCOC(=O)C1=C(C)NC(=S)NC1 [Compound 273, 6-methyl-2-thioxo-1,2,3,4-tetrahydro-pyrimidine-5-carboxylic acid 2-(2-ethoxy-phenyl)-ethyl ester]
- IC50 [2]: 800 nM
- IC50 [3]: < 1000 nM

Structure (SMILES): CC1=C(C(=O)OCc2cccc(C(F)(F)F)c2)C(CO)NC(=S)N1 (stereo not drawn) [51″, 4-hydroxymethyl-6-methyl-2-thioxo-1,2,3,4-tetrahydro-pyrimidine-5-carboxylic acid 3-trifluoromethyl-benzyl ester]
- IC50 [2]: 2300 nM
- IC50 [3]: 1000 to 10000 nM

Structure (SMILES): CC1=C(C(=O)OCc2ccsc2)C(CF)NC(=S)N1 (stereo not drawn) [Compound 253, 4-fluoromethyl-6-methyl-2-thioxo-1,2,3,4-tetrahydro-pyrimidine-5-carboxylic acid thiophen-3-ylmethyl ester]
- IC50 [2]: 13000 nM
- IC50 [3]: 10000 to 20000 nM

Structure (SMILES): CC(=O)OCC1NC(=S)NC(C)=C1C(=O)OCCCCc1ccsc1 (stereo not drawn) [26″, 4-acetoxymethyl-6-methyl-2-thioxo-1,2,3,4-tetrahydro-pyrimidine-5-carboxylic acid 4-thiophen-3-yl-butyl ester]
- IC50 [2]: 2000 nM
- IC50 [3]: 1000 to 10000 nM

Structure (SMILES): COc1ccc(C2(COC(=O)C3=C(C)NC(=S)NC3CF)CCCC2)cc1 (stereo not drawn) [64′, 4-fluoromethyl-6-methyl-2-thioxo-1,2,3,4-tetrahydro-pyrimidine-5-carboxylic acid 1-(4-methoxy-phenyl)-cyclopentylmethyl ester]
- IC50 [2]: 3000 nM
- IC50 [3]: 1000 to 10000 nM

Structure (SMILES): COc1ccc(COC(=O)C2=C(C)NC(=S)NC2)cc1C [Compound 176, 6-methyl-2-thioxo-1,2,3,4-tetrahydro-pyrimidine-5-carboxylic acid 4-methoxy-3-methyl-benzyl ester]
- IC50 [2]: 2700 nM
- IC50 [3]: 1000 to 10000 nM

Structure (SMILES): CC1=C(C(=O)OCc2cccs2)CNC(=S)N1 [Compound 153, 6-methyl-2-thioxo-1,2,3,4-tetrahydro-pyrimidine-5-carboxylic acid thiophen-2-ylmethyl ester]
- IC50 [2]: 2700 nM
- IC50 [3]: 1000 to 10000 nM

Structure (SMILES): CC(C)=CCOC(=O)C1=C(C)NC(=S)NC1 [Compound 53, 6-methyl-2-thioxo-1,2,3,4-tetrahydro-pyrimidine-5-carboxylic acid 3-methyl-but-2-enyl ester]
- IC50 (Hepatitis C virus, 72 h): 6600 nM
- IC50 [1]: 1000 to 10000 nM
